# According to patent US8198307B2, “Imidazole derivatives having aryl piperidine substituent, method for preparation thereof and pharmaceutical compositions containing same” (Korea Research Institute of Chemical Technology, priority 2007, dated 2012):
# Biological target: T1, MCH R1 (melanine-concentrating hormone receptor-1) (Homo sapiens, UniProt Q99705)
# T1 construct: purchased Euroscreen, Gosselies, Belgium
# Assay: Inhibitory effects on MCH R1 binding (Eu-MCH time-resolved fluorescence binding assay)
# Details: concentration inhibiting the binding of MCH (Eu-MCH, 2 nM) to MCH R1 by 50% in vitro; TRF readout; test range 1 nM to 10 μM; read-out: IC50
# Summary of the method: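 Receptor membranes were incubated 90 min at room temperature with 2 nM Eu-MCH and test compound (1 nM–10 μM final) in 25 mM HEPES pH 7.4, 5 mM MgCl2, 1 mM CaCl2, 0.5% BSA, then filter-washed. Nonspecific binding was defined with 0.5 μM MCH. Time-resolved fluorescence (ex 340/em 615 nm) gave percent inhibition of specific binding.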
# T1 sequence (Q99705 whole entry, species assumed): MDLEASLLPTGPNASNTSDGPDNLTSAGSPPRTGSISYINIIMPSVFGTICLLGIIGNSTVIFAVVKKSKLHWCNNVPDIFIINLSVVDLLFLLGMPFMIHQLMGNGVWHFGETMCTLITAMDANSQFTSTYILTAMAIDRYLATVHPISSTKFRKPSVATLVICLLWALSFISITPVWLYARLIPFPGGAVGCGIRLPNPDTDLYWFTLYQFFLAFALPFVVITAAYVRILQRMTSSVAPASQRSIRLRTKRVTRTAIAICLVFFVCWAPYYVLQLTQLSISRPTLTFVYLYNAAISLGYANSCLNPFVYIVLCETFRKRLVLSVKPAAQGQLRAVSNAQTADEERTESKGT
row,SMILES,IC50
1,"CC(=O)Nc1cccc(C2CCN(CCCn3c(C)nc4ccc(C)nc43)CC2)c1 [Example 91, 2,5-dimethyl-3-{3-[4-(3-acetylaminophenyl)piperidin-1-yl]propyl}-3H-imidazo[4,5-b]pyridine]",2800 nM
2,"CC(=O)Nc1cccc(C2CCN(CCCn3c(C)nc4cc(Br)c(C)nc43)CC2)c1 [Example 92, 6-bromo-2,5-dimethyl-3-{3-[4-(3-acetylaminophenyl)piperidin-1-yl]propyl}-3H-imidazo[4,5-b]pyridine]",188 nM
3,"CCc1nc2cc(Br)c(C)nc2n1CCCN1CCC(c2cccc(NC(C)=O)c2)CC1 [Example 93, 6-bromo-2-ethyl-5-methyl-3-{3-[4-(3-acetylaminophenyl)piperidin-1-yl]propyl}-3H-imidazo[4,5-b]pyridine]",98 nM
4,"CC(=O)Nc1cccc(C2CCN(CCCn3c(-c4ccccn4)nc4ccccc43)CC2)c1 [Example 104, 2-(pyridin-2-yl)-1-{3-[4-(3-acetamidophenyl)piperidin-1-yl]propyl}-1H-benzimidazole]",33 nM
5,"CC(=O)Nc1cccc(C2CCN(CCCn3c(-c4cccnc4)nc4ccccc43)CC2)c1 [Example 105, 2-(pyridin-3-yl)-1-{3-[4-(3-acetamidophenyl)piperidin-1-yl]propyl}-1H-benzimidazole]",60 nM
6,"CC(=O)Nc1cccc(C2CCN(CCCn3c(-c4ccncc4)nc4ccccc43)CC2)c1 [Example 106, 2-(pyridin-4-yl)-1-{3-[4-(3-acetamidophenyl)piperidin-1-yl]propyl}-1H-benzimidazole]",150 nM
7,"CC(=O)Nc1cccc(C2CCN(CCCn3c(-c4ccoc4)nc4ccccc43)CC2)c1 [Example 107, 2-(furan-3-yl)-1-{3-[4-(3-acetylaminophenyl)piperidin-1-yl]propyl}-1H-benzimidazole]",25 nM
8,"CC(=O)Nc1cccc(C2CCN(CCCn3c(-c4ccc(Br)o4)nc4ccccc43)CC2)c1 [Example 108, 2-(5-bromofuran-2-yl)-1-{3-[4-(3-acetylaminophenyl)piperidin-1-yl]propyl}-1H-benzimidazole]",3 nM
9,"CC(=O)Nc1cccc(C2CCN(CCCn3c(-c4cccs4)nc4ccccc43)CC2)c1 [Example 109, 2-(thiophen-2-yl)-1-{3-[4-(3-acetylaminophenyl)piperidin-1-yl]propyl}-1H-benzimidazole]",15 nM
10,"CC(=O)Nc1cccc(C2CCN(CCCn3c(-c4ccc(C)s4)nc4ccccc43)CC2)c1 [Example 110, 2-(5-methylthiophen-2-yl)-1-{3-[4-(3-acetylaminophenyl)piperidin-1-yl]propyl}-1H-benzimidazole]",14 nM
11,"CC(=O)Nc1cccc(C2CCN(CCCn3c(-c4cccn4C)nc4ccccc43)CC2)c1 [Example 111, 2-(1-methylpyrrol-2-yl)-1-{3-[4-(3-acetylaminophenyl)piperidin-1-yl]propyl}-1H-benzimidazole]",9 nM
12,"CC(=O)Nc1cccc(C2CCN(CCCn3c(-c4cncc(Br)c4)nc4ccccc43)CC2)c1 [Example 112, 2-(5-bromopyridin-3-yl)-1-{3-[4-(3-acetylaminophenyl)piperidin-1-yl]propyl}-1H-benzimidazole]",5 nM
13,"CC(=O)Nc1cccc(C2CCN(CCCn3c(-c4ccc(Cl)nc4)nc4ccccc43)CC2)c1 [Example 113, 2-(6-chloropyridin-3-yl)-1-{3-[4-(3-acetamidophenyl)piperidin-1-yl]propyl}-1H-benzimidazole]",1 nM
14,"CC(=O)Nc1cccc(C2CCN(CCCn3c(-c4ccc(C)nc4)nc4ccccc43)CC2)c1 [Example 114, 2-(6-methylpyridin-3-yl)-1-{3-[4-(3-acetamidophenyl)piperidin-1-yl]propyl}-1H-benzimidazole]",42 nM
15,"COc1ncccc1-c1nc2ccccc2n1CCCN1CCC(c2cccc(NC(C)=O)c2)CC1 [Example 115, 2-(2-methoxypyridin-3-yl)-1-{3-[4-(3-acetamidophenyl)piperidin-1-yl]propyl}-1H-benzimidazole]",67 nM
16,"CC(=O)Nc1cccc(C2CCN(CCCn3c(-c4cccnc4)nc4cc(Cl)ccc43)CC2)c1 [Example 116, 5-chloro-2-(pyridin-3-yl)-1-{3-[4-(3-acetamidophenyl)piperidin-1-yl]propyl}-1H-benzimidazole]",48 nM

# The remaining lines, values ahead:
row,IC50,SMILES
1,3 nM,"CCCCc1nc2cc(Br)c(C)nc2n1CCCN1CCC(c2cccc(NC(C)=O)c2)CC1 [Example 94, 6-bromo-2-butyl-5-methyl-3-{3-[4-(3-acetylaminophenyl)piperidin-1-yl]propyl}-3H-imidazo[4,5-b]pyridine]"
2,90 nM,"CCCCc1nc2c(C)cc(C)nc2n1CCCN1CCC(c2cccc(NC(C)=O)c2)CC1 [Example 95, 2-butyl-5,7-dimethyl-3-{3-[4-(3-acetylaminophenyl)piperidin-1-yl]propyl}-3H-imidazo[4,5-b]pyridine]"
3,60 nM,"CCCCc1nc2c(C)c(-c3ccccc3)c(C)nc2n1CCCN1CCC(c2cccc(NC(C)=O)c2)CC1 [Example 96, 2-butyl-5,7-dimethyl-6-phenyl-3-{3-[4-(3-acetylaminophenyl)piperidin-1-yl]propyl}-3H-imidazo[4,5-b]pyridine]"
4,70 nM,"CCCCc1nc2cc(-c3ccccn3)c(C)nc2n1CCCN1CCC(c2cccc(NC(C)=O)c2)CC1 [Example 97, 2-butyl-5-methyl-6-pyridin-2-yl-3-{3-[4-(3-acetylaminophenyl)piperidin-1-yl]propyl}-3H-imidazo[4,5-b]pyridine]"
5,1 nM,"CCCCc1nc2cc(Br)c(C)nc2n1CCCN1CCC(c2cccc(NC(=O)C(C)C)c2)CC1 [Example 98, 6-bromo-2-butyl-5-methyl-3-{3-[4-(3-isobutyrylaminophenyl)piperidin-1-yl]propyl}-3H-imidazo[4,5-b]pyridine]"
6,40 nM,"CCCCc1nc2c(C)cc(C)nc2n1CCCN1CCC(c2cccc(NC(=O)C(C)C)c2)CC1 [Example 99, 2-butyl-5,7-dimethyl-3-{3-[4-(3-isobutyrylaminophenyl)piperidin-1-yl]propyl}-3H-imidazo[4,5-b]pyridine]"
7,320 nM,"CCCCc1nc2c(C)c(-c3ccccc3)c(C)nc2n1CCCN1CCC(c2cccc(NC(=O)C(C)C)c2)CC1 [Example 100, 2-butyl-5,7-dimethyl-6-phenyl-3-{3-[4-(3-isobutyrylaminophenyl)piperidin-1-yl]propyl}-3H-imidazo[4,5-b]pyridine]"
8,40 nM,"CCCCc1nc2cc(-c3ccccn3)c(C)nc2n1CCCN1CCC(c2cccc(NC(=O)C(C)C)c2)CC1 [Example 101, 2-butyl-5-methyl-6-pyridin-2-yl-3-{3-[4-(3-isobutyrylaminophenyl)piperidin-1-yl]propyl}-3H-imidazo[4,5-b]pyridine]"
9,260 nM,"CCCCc1nc2cc(-c3ccccc3)c(C=O)nc2n1CCCN1CCC(c2cccc(NC(=O)C(C)C)c2)CC1 [Example 102, 2-butyl-5-formyl-6-phenyl-3-{3-[4-(3-isobutyrylaminophenyl)piperidin-1-yl]propyl}-3H-imidazo[4,5-b]pyridine]"
10,20 nM,"CCCCc1nc2cc(-c3ccc([N+](=O)[O-])cc3)c(C)nc2n1CCCN1CCC(c2cccc(NC(=O)C(C)C)c2)CC1 [Example 103, 2-butyl-5-methyl-6-(4-nitrophenyl)-3-{3-[4-(3-isobutyrylaminophenyl)piperidin-1-yl]propyl}-3H-imidazo[4,5-b]pyridine]"
